# Data reported in patent US10336746B1, “RAD51 inhibitors” (Cyteir Therapeutics, Inc., priority 2017, dated 2019).
# pEC50: −log10 of the molar value. Like-named read-outs stand apart in the source and are kept apart here.
# What was measured:
# [1] = test system: Daudi cell line (AID positive); assay: Primary screening cell killing assay, Daudi cell line (AID positive); type: cell-based; conditions: Homo sapiens, 168 h, cell death on Day 7, Cell-Titer Glo
# Procedure, shortened: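 AID-positive Daudi cells, 1250 per well, were exposed to serially diluted compounds for 7 days at 37° C. Viability read by CellTiter-Glo luminescence; percent cell death and EC50 derived against untreated wells after media-blank subtraction.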
# [2] = test system: WI-38 cells (AID negative); assay: Primary screening cell killing assay repeated in WI-38 cells (AID negative); type: cell-based; conditions: Homo sapiens, 168 h, cell death on Day 7, Cell-Titer Glo
# Procedure, shortened: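 Cell-killing counter-screen in AID-negative WI-38 cells, probing RAD51 inhibition via AID/RAD51 synthetic lethality. Viability luminescence (RLU) was media-subtracted, normalized to DMSO wells, and converted to percent kill (1 − normalized RLU) × 100; EC50 came from non-linear regression on a semi-log scale.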
# [3] = Bi-directional Caco-2 permeability; type: in vitro ADME; conditions: human; for efflux ratio at 90 min: Caco-2, read-out: BA/AB Ratio; for Papp A→B at 90 min: Caco-2, apical to basolateral, read-out: AB Papp (cm/sec × 10^6); for Papp A→B at 90 min / Papp B→A at 90 min: 37 C, up to 90 minutes; for Papp B→A at 90 min: Caco-2, basolateral to apical, read-out: BA Papp (cm/sec × 10^6)
# Description: (§1) Bi-directional Caco-2 permeability was assayed. Caco-2 cells were seeded onto permeable polycarbonate supports and allowed to differentiate for about 3 weeks prior to being used in the assays. The cells were then exposed to the compounds from either the apical or basolateral sides and incubated at 37 C for up to 90 minutes under light agitation. Compound transport was then measured using LC/MS/MS analysis at 30, 60, and 90 minutes.
# [4] = Human liver microsome stability; type: in vitro ADME; conditions: human liver microsomes; for half-life / microsomal CLint: 37° C., 45 minutes; for microsomal CLint: read-out: Clearance (μg/min/mg)
# Description: The stability of the claimed compounds was determined in the presences of human liver microsomes. The compounds were incubated with the microsomes at 37° C. for 45 minutes. Samples were analyzed using LC-MS/MS. Data analysis included half-life, clearance rate, and the percentage of hepatic blood flow (% QH) for each of the compounds in the different species.
# Daudi (Lymphoma) = assay: Cell line screen, Daudi; type: cell-based; conditions: Homo sapiens, AICDA Expression High
# Description: (§2) The activity of the claimed compounds was measured in a variety of cell lines with different expression levels of activation induced cytidine deaminase (AICDA). The potency assay was repeated in all of the listed cell lines and the EC50 values recorded.
# WSU-FSCCL (Lymphoma) = assay: Cell line screen, WSU-FSCCL; type: cell-based; conditions: AICDA Expression Negative
# Description: as §2
# U-698-M (Lymphoma) = assay: Cell line screen, U-698-M; type: cell-based; conditions: AICDA Expression High
# Description: as §2
# CCRF-SB (Leukemia) = assay: Cell line screen, CCRF-SB; type: cell-based; conditions: Homo sapiens, AICDA Expression High
# Description: as §2
# KYSE-70 (Head and Neck) = assay: Cell line screen, KYSE-70; type: cell-based; conditions: Homo sapiens, AICDA Expression Low
# Description: as §2
# KG-1 (Leukemia) = assay: Cell line screen, KG-1; type: cell-based; conditions: AICDA Expression Negative
# Description: as §2
# KYSE-510 (Head and Neck) = assay: Cell line screen, KYSE-510; type: cell-based; conditions: Homo sapiens, AICDA Expression Negative
# Description: as §2
# TOV-1120D (Ovary) = assay: Cell line screen, TOV-1120D; type: cell-based; conditions: AICDA Expression Negative
# Description: as §2
# OV56 (Ovary) = assay: Cell line screen, OV56; type: cell-based; conditions: AICDA Expression Low
# Description: as §2
# [5] = test system: ARPE19/HPV16 (HPV Immortalized RPE); assay: Cell line screen, ARPE19/HPV16; type: cell-based; conditions: ARPE-19, AICDA Expression Negative
# Description: as §2
# [6] = test system: WI-38 (Normal Human Lung Fibroblast); assay: Cell line screen, WI-38; type: cell-based; conditions: AICDA Expression Negative
# Description: as §2
# [7] = Pharmacokinetic (PK) study, plasma by LC-MS; type: in vivo, Rat; conditions: po @ 80 mg/kg (30% PEG400, 10% Vitamin E TPGS in water); for half-life: plasma
# Description: PK studies in mice were used to determine the fate of the compounds in a whole organism. Rats were treated with the compounds either orally of via IV at the indicated doses and followed for up to 24 hours. Plasma samples were taken at different time points and analyzed by LC-MS.
# Caco-2 cells = assay: Bi-directional Caco-2 permeability; type: in vitro ADME; conditions: Caco-2
# Description: as §1
# [8] = Caco-2, Caco-2, AB direction, read-out: AB Recovery %
# [9] = Caco-2, Caco-2, BA direction, read-out: BA Recovery %
"recovery at 90 min [3, 8] [%]","recovery at 90 min [3, 9] [%]",efflux ratio at 90 min [3],Papp A→B at 90 min [3] [×10⁻⁶ cm/s],Papp B→A at 90 min [3] [×10⁻⁶ cm/s],SMILES,pEC50 [1],pEC50 [2],% QH (percentage of hepatic blood flow) [4] [%],half-life [4] [h],microsomal CLint [4] [µL/min/mg],pEC50 (Daudi (Lymphoma)),pEC50 (WSU-FSCCL (Lymphoma)),pEC50 (U-698-M (Lymphoma)),pEC50 (CCRF-SB (Leukemia)),pEC50 (KYSE-70 (Head and Neck)),pEC50 (KG-1 (Leukemia)),pEC50 (KYSE-510 (Head and Neck)),pEC50 [5],pEC50 [6],F (%) @ 5 mg/kg ([7]; Rat Female) [%],also measured
,,,,,"CC(C)OC(=O)Nc1ccc(-c2cnc([C@@H]3CC[C@@H](NC(=O)OC(C)C)CO3)s2)c(S(=O)(=O)NC(C)(C)C)c1 (relative stereo) [Ex. 60, trans-isopropyl N-[6-[5-[2-(tert-butylsulfamoyl)-4-(isopropoxycarbonylamino)phenyl]thiazol-2-yl]tetrahydropyran-3-yl]carbamate]",6.00 to 7.00,< 6.00,,,,,,,,,,,,,,BA/AB Ratio (Caco-2 cells): 0.9
79.7,95.9,12.5,2.2,27.4,"CC(C)OC(=O)N[C@@H]1CC[C@@H](c2ncc(-c3ccc(NC(=O)NCc4ccccc4)cc3S(=O)(=O)NC(C)(C)C)s2)NC1 [Ex. 64, isopropyl ((3R,6S)-6-(5-(4-(3-benzylureido)-2-(N-(tert-butyl)sulfamoyl)phenyl)thiazol-2-yl)piperidin-3-yl)carbamate]",≥ 7.00,< 6.00,,,,,,,,,,,,,,
51.2,84.3,1.2,11.6,13.5,CC(C)OC(=O)Nc1ccc(-c2cnc([C@H]3CC[C@H](NC(=O)OC(C)C)CO3)s2)c(S(=O)(=O)NC(C)(C)C)c1 [Ex. 60B],6.00 to 7.00,< 6.00,,,,,,,,,,,,,,
56.2,82,2.1,4.6,9.7,CC(C)OC(=O)N[C@H]1CC[C@H](c2ncc(-c3ccc(NC(=O)NCc4ccccc4)cc3S(=O)(=O)NC(C)(C)C)s2)OC1 [Ex. 59B],≥ 7.00,< 6.00,,,,,,,,,,,,,,

SMILES,"recovery at 90 min [3, 8] [%]","recovery at 90 min [3, 9] [%]",efflux ratio at 90 min [3],Papp A→B at 90 min [3] [×10⁻⁶ cm/s],Papp B→A at 90 min [3] [×10⁻⁶ cm/s],pEC50 [1],pEC50 [2],% QH (percentage of hepatic blood flow) [4] [%],half-life [4] [h],microsomal CLint [4] [µL/min/mg],pEC50 (Daudi (Lymphoma)),pEC50 (WSU-FSCCL (Lymphoma)),pEC50 (U-698-M (Lymphoma)),pEC50 (CCRF-SB (Leukemia)),pEC50 (KYSE-70 (Head and Neck)),pEC50 (KG-1 (Leukemia)),pEC50 (KYSE-510 (Head and Neck)),pEC50 [5],pEC50 [6],F (%) @ 5 mg/kg ([7]; Rat Female) [%],also measured
"CC(C)OC(=O)N[C@H]1CC[C@H](c2ncc(-c3ccc(NC(=O)NCc4ccccn4)cc3S(=O)(=O)NC(C)(C)C)s2)CC1 [Ex. 29, isopropyl ((1r,4r)-4-(5-(2-(N-(tert-butyl)sulfamoyl)-4-(3-(pyridin-2-ylmethyl)ureido)phenyl)thiazol-2-yl)cyclohexyl)carbamate]",93.9,90.9,2.2,10.9,24.1,≥ 7.00,< 6.00,78.8,0.342,68,7.37,7.17,6.95,5.89,5.33,< 5.00,< 5.00,< 5.00,< 5.00,8.39,pEC50 (TOV-1120D (Ovary)): 5.04; pEC50 (OV56 (Ovary)): 5.04; F (%) @ 5 mg/kg ([7]; Rat Male): 3.69%; half-life ([7]; Rat Female): 4.66 h; half-life ([7]; Rat Male): 3.97 h
"CC(C)OC(=O)N[C@H]1CC[C@H](c2ncc(-c3ccc(NC(=O)NCc4ncccc4F)cc3S(=O)(=O)NC(C)(C)C)s2)CC1 [Ex. 31, isopropyl ((1r,4r)-4-(5-(2-(N-(tert-butyl)sulfamoyl)-4-(3-((3-fluoropyridin-2-yl)methyl)ureido)phenyl)thiazol-2-yl)cyclohexyl)carbamate]",70.5,92.3,1.1,12.8,13.6,≥ 7.00,< 6.00,77.3,0.373,61.9,7.70,> 7.40,7.51,5.66,5.33,5.06,< 5.00,< 5.00,< 5.00,2.77,F (%) @ 5 mg/kg ([7]; Rat Male): 1.49%; half-life ([7]; Rat Female): 4.75 h; half-life ([7]; Rat Male): 3.79 h
